Columns and labels:
human CTPS1 [1] = test: RapidFire/MS-based enzyme selectivity assay, human CTPS1; assay type: biochemical; details: calculated from the CTPS1 and CTPS2 IC50 values
Description: The enzyme inhibitory activities against each target isoform of interest may be determined for the compounds of the invention using an optimised RapidFire high-throughput mass spectrometry (RF/MS) assay format. RF/MS assays for both human CTPS1 and CTPS2 may be performed in assay buffer consisting of 50mM HEPES (Merck), 20mM MgCl2, 5mM KCI, 1mM DTT, 0.01% Tween-20, pH to 8.0 accordingly. Human full-length active C-terminal FLAG-His-tag CTPS1 (UniProtKB - P17812, CTPS[1-591]-[…]) may be obtained from Proteros biostructures GmbH. Human full length active C-terminal FLAG-His-Avi tagged CTPS2 (UniProtKB-Q9NRF8, CTPS2 [1-586]- […]) may be obtained from Harker Bio.
Human CTPS (1 or 2) protein may be prepared in lx assay buffer to the final working protein concentration required for the reaction. A 2uL volume per well of 2× CTPS (1 or 2) protein may be mixed with 40nL of compound using acoustic (ECHO) delivery and incubated for 10 minutes at 25° C. Each isoform enzymatic reaction may be subsequently initiated by addition of 2uL per well of a 2× substrate mix in assay buffer. For hCTPS1: ATP (0.3mM), UTP (0.2mM), GTP (0.07mM) and L-glutamine (0.1mM). For hCTPS2: ATP (0.1mM), UTP (0.04mM), GTP (0.03mM) and L-glutamine (0.1mM). Each mixture may be incubated for an appropriate amount of time per isoform within the determined linear phase of the reaction at 25° C. A 60uL volume of stop solution (1% formic acid with 0.5uM ^13C9-^15N3-CTP in H2O) may be added and the plate immediately heat-sealed and centrifuged for 10 minutes at 4,000rpm. Following centrifugation, plates may be loaded onto the Agilent RapidFire microfluidic solid phase extraction system coupled to an AP14000 triple quadrupole mass spectrometer (RF/MS) for analysis.
In all cases, the enzyme converts UTP to CTP. Highly specific and sensitive multiple reaction monitoring (MRM) MS methods may be optimised for the detection of the enzymatic reaction product, CTP, and the stable isotope labelled product standard ^13C9-^15N3-CTP. Readout for data analysis may be calculated as the ratio between the peak area of the product CTP and the internal standard ^13C9-^15N3-CTP. For data reporting, the following equation may be used:
[formula] (R=ratio/readout, P=product signal area, IS=internal standard signal area)
For each screening plate, the means of the negative (DMSO) and positive control values were used for the calculation of the respective assay window (S/B) and Z′ values. The median of the respective control values was used for calculation of percent inhibition according to the following equation:
[formula] (I=Inhibition, Rneg=median of negative control readout values, Rpos=median of positive control readout values, Rsample=sample readout value)
(§1) Percentage inhibition was then plotted against compound concentration, and the 50% inhibitory concentration (IC50) was determined from the resultant concentration-response curve.
Fold selectivity between CTPS1 and CTPS2 was subsequently calculated according to the following equation: […]

human CTPS1 [2] = target: T1, human CTPS1 (Homo sapiens, UniProt P17812); test: Human CTPS1 enzyme inhibition (ADP-Glo Max assay); assay type: biochemical; details: human full length CTPS1, 25° C., read-out: CTPS1 (Human CTPS1 Enzyme Inhibition, IC50 grouped by potency range)
T1 construct: purchased Proteros biostructures GmbH
T1 sequence (P17812 1-591): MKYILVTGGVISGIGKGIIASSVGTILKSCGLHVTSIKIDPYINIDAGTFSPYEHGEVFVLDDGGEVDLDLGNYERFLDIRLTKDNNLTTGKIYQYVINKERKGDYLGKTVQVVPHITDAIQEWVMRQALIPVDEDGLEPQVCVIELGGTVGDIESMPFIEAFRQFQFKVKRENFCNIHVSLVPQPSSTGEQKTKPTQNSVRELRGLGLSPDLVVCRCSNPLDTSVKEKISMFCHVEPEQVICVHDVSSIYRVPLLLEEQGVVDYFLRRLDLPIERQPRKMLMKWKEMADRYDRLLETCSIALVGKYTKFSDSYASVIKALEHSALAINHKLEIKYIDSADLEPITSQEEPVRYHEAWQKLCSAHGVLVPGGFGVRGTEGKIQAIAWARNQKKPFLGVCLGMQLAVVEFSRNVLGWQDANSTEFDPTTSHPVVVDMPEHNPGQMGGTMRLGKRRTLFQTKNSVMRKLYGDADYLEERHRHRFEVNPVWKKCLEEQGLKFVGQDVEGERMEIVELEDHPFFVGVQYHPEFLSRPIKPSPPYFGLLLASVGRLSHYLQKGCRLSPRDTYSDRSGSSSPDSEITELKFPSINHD
Description: The enzyme inhibitory activities of compounds invented against the target of interest were determined using the ADP-GIoTM Max assay (Promega, UK). Assays for human CTPS1 were performed in lx assay buffer containing 50mM Tris, 10mM MgCl2, 0.01% Tween-20, pH to 8.0 accordingly. Finally, immediately before use, L-cysteine was added to the lx assay buffer to a final concentration of 2mM. All reagents are from Sigma-Aldrich unless specified otherwise. Human full length active C-terminal FLAG-Hiss-tag CTPS1 (UniProtKB - P17812, CTPS[1-591]-[…]) was obtained from Proteros biostructures GmbH.
Assay Procedure 3× human CTPS1 protein was prepared in lx assay buffer to the final working protein concentration required for the reaction. A 2uL volume per well of 3x human CTPS1 protein was mixed with 2uL per well of 3× test compound (compound prepared in lx assay buffer to an appropriate final 3× compound concentration respective to the concentration response curve designed for the compounds under test) for 10 minutes at 25° C. The enzymatic reaction was then initiated by addition of a 2uL per well volume of a pre-mixed substrate mix (UltraPure ATP from ADP-GIo™ Max kit (0.31mM), GTP (0.034mM), UTP (0.48mM) and L-glutamine (0.186mM)) and the mixture was incubated for an appropriate amount of time within the determined linear phase of the reaction at 25° C. under sealed plate conditions with constant agitation at 500 revolutions per minute (rpm). ADP-GIo™ Max reagent was added for 60 minutes ([…] per well) and subsequently ADP-GIo™ Max development reagent was added for 60 minutes (12uL per well) prior to signal detection in a microplate reader (EnVision® Multilabel Reader, Perkin Elmer). Following each reagent addition over the course of the assay, assay plates were pulse centrifuged for 30 seconds at 500rpm.
In all cases, the enzyme converts ATP to ADP and the ADP-GIo™ Max reagent subsequently depletes any remaining endogenous ATP in the reaction system. The ADP-GIo™ Max detection reagent converts the ADP that has been enzymatically produced back into ATP and using ATP as a substrate together with luciferin for the enzyme luciferase, light is generated which produces a detectable luminescence. […] The percentage inhibition produced by each concentration of compound was calculated using the equation shown below: […]
as §1

Selectivity (fold selectivity between CTPS1 and CTPS2) (human CTPS1 [1])	IC50 (human CTPS1 [2])	Structure (SMILES)
+++ (>60 fold (+++))	–	CCOc1cncc(-c2ccc(NC(=O)C3(c4ccnc(NS(=O)(=O)C5CC5)n4)CCCC3)nc2)n1 [P136, 1-(2-(cyclopropanesulfonamido)pyrimidin-4-yl)-N-(5-(6-ethoxypyrazin-2-yl)pyridin-2-yl)cyclopentane-1-carboxamide]
+++ (>60 fold (+++))	–	CCOc1cncc(-c2ccc(NC(=O)C(CCOC)c3ccnc(NS(=O)(=O)C4CC4)n3)c(F)c2)n1 (stereo not shown) [P146, 2-(2-(cyclopropanesulfonamido)pyrimidin-4-yl)-N-(4-(6-ethoxypyrazin-2-yl)-2-fluorophenyl)-4-methoxybutanamide]
–	100 to 1000 nM	CCC(NC(=O)c1ccc(-c2cncc(Cl)c2)cc1)c1ccnc(NS(=O)(=O)C2CC2)n1 (stereo not shown) [P214, 4-(5-chloropyridin-3-yl)-N-(1-(2-(cyclopropanesulfonamido)pyrimidin-4-yl)propyl)benzamide]
–	100 to 1000 nM	CCOc1cncc(-c2ccc(C(=O)NC(CC)c3ccnc(NS(=O)(=O)C4CC4)n3)c(C(F)(F)F)c2)n1 (stereo not shown) [P215, N-(1-(2-(cyclopropanesulfonamido)pyrimidin-4-yl)propyl)-4-(6-ethoxypyrazin-2-yl)-2-(trifluoromethyl)benzamide]
–	100 to 1000 nM	CCC(NC(=O)c1ccc(-c2cncc(C(F)(F)F)c2)cc1)c1ccnc(NS(=O)(=O)C2CC2)n1 (stereo not shown) [P213, N-(1-(2-(cyclopropanesulfonamido)pyrimidin-4-yl)propyl)-4-(5-(trifluoromethyl)pyridin-3-yl)benzamide]
–	100 to 1000 nM	CCOc1cncc(-c2ccc(C(=O)NC(CC)c3ccnc(NS(=O)(=O)C4CC4)n3)cc2)n1 (stereo not shown) [P219, N-(1-(2-(cyclopropanesulfonamido)pyrimidin-4-yl)propyl)-4-(6-ethoxypyrazin-2-yl)benzamide]
–	100 to 1000 nM	CCOc1cncc(-c2ccc(NC(=O)C(CC)c3cccc(NS(=O)(=O)C4CC4)n3)c(F)c2)n1 (stereo not shown) [P190, 2-(6-(cyclopropanesulfonamido)pyridin-2-yl)-N-(4-(6-ethoxypyrazin-2-yl)-2-fluorophenyl)butanamide]
–	100 to 1000 nM	CCC(NC(=O)c1ccc(-c2cncc(C(F)(F)F)c2)cc1F)c1ccnc(NS(=O)(=O)C2CC2)n1 (stereo not shown) [P211, N-(1-(2-(cyclopropanesulfonamido)pyrimidin-4-yl)propyl)-2-fluoro-4-(5-(trifluoromethyl)pyridin-3-yl)benzamide]
–	100 to 1000 nM	CCOc1cncc(-c2ccc(C(=O)NC(CC)c3cncc(NS(=O)(=O)C4CC4)n3)c(F)c2)n1 (single isomer, unassigned) [P224, N-(1-(6-(cyclopropanesulfonamido)pyrazin-2-yl)propyl)-4-(6-ethoxypyrazin-2-yl)-2-fluorobenzamide]

The remaining lines, values behind:

Structure (SMILES)	Selectivity (fold selectivity between CTPS1 and CTPS2) (human CTPS1 [1])	IC50 (human CTPS1 [2])
CCOc1cncc(-c2ccc(NC(=O)C(C)(C)c3ccnc(NS(=O)(=O)C4CC4)n3)nc2)n1 [P31, 2-(2-(cyclopropanesulfonamido)pyrimidin-4-yl)-N-(5-(6-ethoxypyrazin-2-yl)pyridin-2-yl)-2-methylpropanamide]	+++ (>60 fold (+++))	–
CCOc1cncc(-c2ccc(NC(=O)C(C)(C)c3ccnc(NS(=O)(=O)C4CC4)n3)cc2)n1 [P65, 2-(2-(cyclopropanesulfonamido)pyrimidin-4-yl)-N-(4-(6-ethoxypyrazin-2-yl)phenyl)-2-methylpropanamide]	++ (>30-60 fold (++))	–
CCOc1cncc(-c2ccc(C(=O)NCc3ccnc(NS(=O)(=O)C4CC4)n3)cc2)n1 [P118, N-((2-(cyclopropanesulfonamido)pyrimidin-4-yl)methyl)-4-(6-ethoxypyrazin-2-yl)benzamide]	+++ (>60 fold (+++))	–
CCOc1cncc(-c2ccc(NC(=O)C(C)(C)c3ccnc(NS(C)(=O)=O)n3)nc2)n1 [P76, N-(5-(6-ethoxypyrazin-2-yl)pyridin-2-yl)-2-methyl-2-(2-(methylsulfonamido)pyrimidin-4-yl)propanamide]	++ (>30-60 fold (++))	–
CC(C)Oc1cncc(-c2ccc(NC(=O)Cc3ccnc(NS(=O)(=O)C4CC4)n3)cc2)n1 [P21, 2-(2-(cyclopropanesulfonamido)pyrimidin-4-yl)-N-(4-(6-isopropoxypyrazin-2-yl)phenyl)acetamide]	++ (>30-60 fold (++))	–
CCC(C(=O)Nc1ccc(-c2cncc(OC(C)C)n2)cc1)c1ccnc(NS(=O)(=O)C2CC2)n1 (stereo not shown) [P107, 2-(2-(cyclopropanesulfonamido)pyrimidin-4-yl)-N-(4-(6-isopropoxypyrazin-2-yl)phenyl)butanamide]	–	≤ 100 nM
CCC(C(=O)Nc1ccc(-c2cncc(OC(C)C)n2)cc1F)c1ccnc(NS(=O)(=O)C2CC2)n1 (stereo not shown) [P97, 2-(2-(cyclopropanesulfonamido)pyrimidin-4-yl)-N-(2-fluoro-4-(6-isopropoxypyrazin-2-yl)phenyl)butanamide]	–	≤ 100 nM
CCC(C(=O)Nc1ccc(-c2cncc(Cl)n2)cc1)c1ccnc(NS(=O)(=O)C2CC2)n1 (stereo not shown) [P104, N-(4-(6-chloropyrazin-2-yl)phenyl)-2-(2-(cyclopropanesulfonamido)pyrimidin-4-yl)butanamide]	–	100 to 1000 nM
CCC(C(=O)Nc1ccc(-c2cnccn2)cc1)c1ccnc(NS(=O)(=O)C2CC2)n1 (stereo not shown) [P109, 2-(2-(cyclopropanesulfonamido)pyrimidin-4-yl)-N-(4-(pyrazin-2-yl)phenyl)butanamide]	–	100 to 1000 nM
CCC(C(=O)Nc1ccc(-c2cncc(C(F)(F)F)n2)cc1F)c1ccnc(NS(=O)(=O)C2CC2)n1 (stereo not shown) [P94, 2-(2-(cyclopropanesulfonamido)pyrimidin-4-yl)-N-(2-fluoro-4-(6-(trifluoromethyl)pyrazin-2-yl)phenyl)butanamide]	–	≤ 100 nM

Reference: patent US20210024507A1, “Compounds” (Step Pharma S.A.S., priority 2018, published 2021)
